The values below come from paper PMC5556379 (Journal of medicinal chemistry, 2017).

Test [1] concerns the target T1, hiCE (Homo sapiens, UniProt O00748).
T1 sequence (O00748 27-559): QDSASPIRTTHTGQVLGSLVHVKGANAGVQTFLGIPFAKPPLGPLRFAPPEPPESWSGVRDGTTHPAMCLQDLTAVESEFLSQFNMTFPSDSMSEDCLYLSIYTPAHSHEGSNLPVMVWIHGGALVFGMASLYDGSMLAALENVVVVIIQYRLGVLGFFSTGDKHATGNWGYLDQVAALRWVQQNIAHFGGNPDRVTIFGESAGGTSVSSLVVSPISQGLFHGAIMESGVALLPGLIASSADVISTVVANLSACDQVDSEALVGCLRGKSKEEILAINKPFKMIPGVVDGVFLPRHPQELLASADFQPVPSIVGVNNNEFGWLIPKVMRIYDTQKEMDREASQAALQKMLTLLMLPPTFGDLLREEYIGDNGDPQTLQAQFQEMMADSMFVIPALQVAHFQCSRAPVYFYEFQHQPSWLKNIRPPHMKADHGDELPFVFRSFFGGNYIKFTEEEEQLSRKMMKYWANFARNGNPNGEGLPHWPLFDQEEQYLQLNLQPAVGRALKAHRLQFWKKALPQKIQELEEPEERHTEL
The format is cell-based. Particulars: U373MG cells expressing hiCE; irinotecan as substrate.

Test [2] has as its target T2, hCE1 (Homo sapiens, UniProt P23141).
T2 sequence (P23141 18-567): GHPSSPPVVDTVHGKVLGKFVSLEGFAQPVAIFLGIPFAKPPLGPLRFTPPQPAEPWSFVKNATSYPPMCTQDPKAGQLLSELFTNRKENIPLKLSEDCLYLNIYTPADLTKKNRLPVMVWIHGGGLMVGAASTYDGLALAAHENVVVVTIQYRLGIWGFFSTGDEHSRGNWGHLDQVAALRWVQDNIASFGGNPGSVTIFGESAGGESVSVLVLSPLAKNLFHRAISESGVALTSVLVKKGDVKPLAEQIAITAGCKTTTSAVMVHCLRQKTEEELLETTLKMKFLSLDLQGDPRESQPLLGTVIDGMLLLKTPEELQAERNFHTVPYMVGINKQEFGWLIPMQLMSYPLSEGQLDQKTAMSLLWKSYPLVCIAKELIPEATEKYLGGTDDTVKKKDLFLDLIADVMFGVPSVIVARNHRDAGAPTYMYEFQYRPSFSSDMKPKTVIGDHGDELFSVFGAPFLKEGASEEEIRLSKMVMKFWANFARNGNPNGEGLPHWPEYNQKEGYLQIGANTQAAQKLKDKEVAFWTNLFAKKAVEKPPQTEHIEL
Particulars: read-out: Ki with hCE1; cited from earlier work.

The structures appear in SMILES notation.

Turning to `Cc1ccc(N(C)C2=CC(=O)C(=O)c3ccccc32)cc1` [Compound 18, 4-((4-Methylphenyl)(methyl)amino)naphthalene-1,2-dione], the “inhibition of hiCE in cells (loss in 7-ethyl-10-hydroxycamptothecin production)” value in test [1] was “less than 23%”.

On to `COc1ccc(N(C)C2=CC(=O)C(=O)c3ccccc32)cc1` [Compound 17, 4-((4-Methoxyphenyl)(methyl)amino)naphthalene-1,2-dione], for which the “inhibition of hiCE in cells (loss in 7-ethyl-10-hydroxycamptothecin production)” value in test [1] is on record as “less than 23%”. As for `Cc1cccc2c3c(ccc12)C1=C(C(=O)C3=O)[C@@H](C)CO1` [dihydrotanshinone], the Ki in test [2] is 398 nM.

A word on the Ki: it is the equilibrium dissociation constant of an inhibitor or competing ligand from its target.
